Experimental data taken from patent US20230062119A1, “USE OF BIOMARKERS IN IDENTIFYING PATIENTS THAT WILL BE RESPONSIVE TO TREATMENT WITH A PRMT5 INHIBITOR” (Merck Sharp & Dohme LLC, priority 2019, published 2023).
Where two headings read alike, the source gives them in different places.

Biological target: T1, Full-length (FL)-PRMT5-MEP50 enzyme complex (Homo sapiens, UniProt O14744)
T1 construct: Full-length (FL)-PRMT5-MEP50 enzyme complex (recombinant proteins from baculovirus-transfected Sf21 cells: FL-PRMT5; MW=73837 kDa and FL-MEP50; MW=38614); made in house; host or cells: baculovirus-transfected Sf21 insect cells
T1 sequence (O14744 whole entry): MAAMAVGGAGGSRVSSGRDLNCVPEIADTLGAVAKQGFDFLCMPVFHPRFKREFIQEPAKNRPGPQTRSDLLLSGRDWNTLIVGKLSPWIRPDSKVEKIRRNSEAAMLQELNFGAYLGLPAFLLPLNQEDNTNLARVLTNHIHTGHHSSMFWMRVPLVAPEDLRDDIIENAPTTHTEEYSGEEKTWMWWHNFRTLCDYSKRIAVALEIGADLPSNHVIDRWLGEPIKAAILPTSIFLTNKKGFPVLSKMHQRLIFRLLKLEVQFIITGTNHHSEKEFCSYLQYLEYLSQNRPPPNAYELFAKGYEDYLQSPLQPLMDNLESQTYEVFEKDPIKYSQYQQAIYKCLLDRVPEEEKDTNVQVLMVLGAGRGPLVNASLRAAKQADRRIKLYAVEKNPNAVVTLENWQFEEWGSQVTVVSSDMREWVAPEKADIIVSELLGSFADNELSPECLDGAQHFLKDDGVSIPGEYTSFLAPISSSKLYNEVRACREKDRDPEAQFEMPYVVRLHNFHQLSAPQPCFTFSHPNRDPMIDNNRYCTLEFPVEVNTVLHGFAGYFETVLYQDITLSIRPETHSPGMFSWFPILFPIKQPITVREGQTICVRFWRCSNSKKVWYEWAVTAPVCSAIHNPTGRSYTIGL
T1 sequence (Q9BQA1 whole entry partner): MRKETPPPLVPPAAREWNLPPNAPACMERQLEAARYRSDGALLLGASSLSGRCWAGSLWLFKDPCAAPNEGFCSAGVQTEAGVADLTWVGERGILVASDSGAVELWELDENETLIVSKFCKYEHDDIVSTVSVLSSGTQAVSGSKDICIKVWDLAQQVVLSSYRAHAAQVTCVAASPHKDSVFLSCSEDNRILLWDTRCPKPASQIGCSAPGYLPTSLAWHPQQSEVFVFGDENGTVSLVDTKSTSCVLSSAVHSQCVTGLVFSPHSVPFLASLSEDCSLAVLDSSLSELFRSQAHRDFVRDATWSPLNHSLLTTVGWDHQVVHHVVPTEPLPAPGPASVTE
Assay: PRMT5-MEP50 Enzyme Methylation Assay
Assay type: biochemical
Conditions: 1.0 nM PRMT5-MEP50, 75 nM biotinylated peptide, 15 μM SAM
Experimental: PRMT5-MEP50 biochemical assay is a direct measurement of the methylation activity of the enzyme complex on a short peptide substrate derived from the N-terminus of H4 histone. Methylation experiment is performed with recombinant PRMT5-MEP50 protein complex. The assessment of inhibitory effect of small molecules is measured by the effectiveness of the compounds to inhibit this reaction (EC50).
In this assay, the potency (EC50) of each compound was determined from a twenty-point (1:2 serial dilution; top compound concentration of 100000 nM) titration curve using the following outlined procedure. To each well of a white ProxiPlus 384 well-plate, 100 nL of compound (1% DMSO in final assay volume of 10 μL) was dispensed, followed by the addition of 8 μL of 1× assay buffer (50 mM Bicine pH 8.0, 1 mM DTT, 0.004% Tween20, 0.01% BSA) containing 1.25 nM of Full-length (FL)-PRMT5-MEP50 enzyme complex (recombinant proteins from baculovirus-transfected Sf21 cells: FL-PRMT5; MW=[…] and FL-MEP50; MW=38614) and 1 μL of 150 μM S-(5′-Adenosyl)-L-Methionine Chloride (SAM). Plates were sealed and placed in a 37° C. humidified chamber for a 60 minutes pre-incubation with compound. Subsequently, each reaction was initiated by the addition of 1 μL 1× assay buffer containing 750 nM biotinylated H4R3(Mel) peptide. The final reaction in each well of 10 μL consists of 1.0 nM PRMT5-MEP50, 75 nM biotinylated-peptide, and 15 μM SAM. Methylation reactions proceeded for 150 minutes in a sealed plate at 37° C. Reactions were immediately quenched by the addition of 1 μL of 5% formic acid. Plates were then frozen and shipped to SAMDI™ Tech Inc. to determine the percent conversion from H4R3(Mel) to H4R3(Me2). Dose-response curves were generated by plotting percent effect (% product conversion; Y-axis) vs. Log 10 compound concentrations (X-axis). EC50 values were determined by non-linear regression according to models for either sigmoidal (4 parameters) or biphasic (7 parameters) dose-response curves.

[1] = one EC50: 4 parameters single site sigmoidal model, EC50 1: first value of 7 parameters biphasic model, read-out: Enzyme Methylation Assay (EC50 or EC50 1)
[2] = second EC50 of 7 parameters biphasic model, read-out: Enzyme Methylation Assay (EC50 2)

SMILES	EC50 [1]	EC50 [2]
Nc1nc2cc(C[C@@H]3CC[C@@]4(O)[C@@H]3O[C@@H](n3ccc5c(N)ncnc53)[C@@H]4O)c(F)cc2cc1F [Example 27, (2R,3R,3aS,6S,6aR)-6-[(2-amino-3,6-difluoroquinolin-7-yl)methyl]-2-(4-amino-7H-pyrrolo[2,3-d]pyrimidin-7-yl)hexahydro-3aH-cyclopenta[b]furan-3,3a-diol]	0.4 nM	–
CNc1ncnc2c1ccn2[C@@H]1C[C@H](COc2ccc3cc(Br)c(N)nc3c2)[C@@](C)(O)[C@H]1O [Example 93, (1R,2S,3R,5R)-5-(((2-amino-3-bromoquinolin-7-yl)oxy)methyl)-1-methyl-3-(4-(methylamino)-7H-pyrrolo[2,3-d]pyrimidin-7-yl)cyclopentane-1,2-diol]	0.5 nM	110 nM
C[C@@]1(O)[C@@H](COc2ccc3cc(Br)c(N)nc3c2)O[C@@H](n2ccc3c(Cl)ncnc32)[C@@H]1O [Example 11, (2R,3S,4R,5R)-2-{[(2-amino-3-bromoquinolin-7-yl)oxy]methyl}-5-(4-chloro-7H-pyrrolo[2,3-d]pyrimidin-7-yl)-3-methyltetrahydrofuran-3,4-diol]	0.9 nM	501 nM
CNc1ncnc2c1c(F)cn2[C@@H]1O[C@@H]2[C@H](Cc3ccc4cc(Br)c(N)nc4c3)CC[C@]2(O)[C@H]1O [Example 96, (2R,3R,3aS,6S,6aR)-6-((2-amino-3-bromoquinolin-7-yl)methyl)-2-(5-fluoro-4-(methylamino)-7H-pyrrolo[2,3-d]pyrimidin-7-yl)hexahydro-3aH-cyclopenta[b]furan-3,3a-diol]	0.8 nM	–
Cc1cn([C@@H]2C[C@@H]3[C@H](Cc4ccc5cc(F)c(N)nc5c4)CC[C@]3(O)[C@H]2O)c2ncnc(N)c12 [Example 38, (1S,2R,3aR,4S,6aR)-4-((2-amino-3-fluoroquinolin-7-yl)methyl)-2-(4-amino-5-methyl-7H-pyrrolo[2,3-d]pyrimidin-7-yl)hexahydropentalene-1,6a(1H)-diol]	0.3 nM	–
Cc1ncnc2c1ccn2[C@@H]1O[C@@H]2[C@H](Oc3ccc4cc(Br)c(N)nc4c3)CC[C@]2(O)[C@H]1O [Example 129, (2R,3R,3aS,6R,6aR)-6-((2-amino-3-bromoquinolin-7-yl)oxy)-2-(4-methyl-7H-pyrrolo[2,3-d]pyrimidin-7-yl)hexahydro-3aH-cyclopenta[b]furan-3,3a-diol]	33.9 nM	31600 nM
Cc1ncnc2c1ccn2[C@@H]1C[C@@H]2[C@H](Cc3ccc4cc(Br)c(N)nc4c3)CC[C@]2(O)[C@H]1O [Example 19, (1S,2R,3aR,4S,6aR)-4-((2-amino-3-bromoquinolin-7-yl)methyl)-2-(4-methyl-7H-pyrrolo[2,3-d]pyrimidin-7-yl)hexahydropentalene-1,6a(1H)-diol]	0.4 nM	–
Nc1nc2cc(O[C@H]3CC[C@@]4(O)[C@@H]3O[C@@H](n3ccc5c(N)ncnc53)[C@@H]4O)ccc2cc1Cl [Example 72, (2R,3R,3aS,6S,6aR)-6-((2-amino-3-chloroquinolin-7-yl)oxy)-2-(4-amino-7H-pyrrolo[2,3-d]pyrimidin-7-yl)hexahydro-3aH-cyclopenta[b]furan-3,3a-diol]	0.9 nM	–
Nc1nc2cc(O[C@H]3CC[C@@]4(O)[C@@H]3O[C@@H](n3ccc5c(N)ncnc53)[C@@H]4O)ccc2cc1F [Example 71, (2R,3R,3aS,6S,6aR)-6-((2-amino-3-fluoroquinolin-7-yl)oxy)-2-(4-amino-7H-pyrrolo[2,3-d]pyrimidin-7-yl)hexahydro-3aH-cyclopenta[b]furan-3,3a-diol]	1.6 nM	–
Cc1ncnc2c1ccn2[C@@H]1O[C@@H]2[C@@H](Cc3ccc4cc(Cl)c(N)nc4c3)CC[C@]2(O)[C@H]1O [Example 131, (2R,3R,3aS,6R,6aR)-6-((2-amino-3-chloroquinolin-7-yl)methyl)-2-(4-methyl-7H-pyrrolo[2,3-d]pyrimidin-7-yl)hexahydro-3aH-cyclopenta[b]furan-3,3a-diol]	0.6 nM	–
Nc1nc2cc(C[C@@H]3CC[C@@]4(O)[C@@H]3C[C@@H](n3ccc5c(N)ncnc53)[C@@H]4O)ccc2cc1Br [Example 41, (1S,2R,3aR,4S,6aR)-4-((2-amino-3-bromoquinolin-7-yl)methyl)-2-(4-amino-7H-pyrrolo[2,3-d]pyrimidin-7-yl)hexahydropentalene-1,6a(1H)-diol 2,2,2-trifluoroacetate]	0.7 nM	–
Cc1ncnc2c1ccn2[C@@H]1O[C@@H]2[C@@H](Nc3ccc4cc(F)c(N)nc4c3)CC[C@]2(O)[C@H]1O [Example 120, (2R,3R,3aS,6S,6aR)-6-((2-amino-3-fluoroquinolin-7-yl)amino)-2-(4-methyl-7H-pyrrolo[2,3-d]pyrimidin-7-yl)hexahydro-3aH-cyclopenta[b]furan-3,3a-diol]	0.6 nM	–
Cc1nc(N)nc2c1ccn2[C@@H]1O[C@@H]2[C@H](Cc3ccc4cc(Br)c(N)nc4c3)CC[C@]2(O)[C@H]1O [Example 127, (2R,3R,3aS,6S,6aR)-6-((2-amino-3-bromoquinolin-7-yl)methyl)-2-(2-amino-4-methyl-7H-pyrrolo[2,3-d]pyrimidin-7-yl)hexahydro-3aH-cyclopenta[b]furan-3,3a-diol]	0.7 nM	–
Nc1nc2cc(O[C@H]3CC[C@@]4(O)[C@@H]3O[C@@H](n3cc(C5CC5)c5c(N)ncnc53)[C@@H]4O)ccc2cc1Br [Example 52, (2R,3R,3aS,6S,6aR)-6-[(2-amino-3-bromoquinolin-7-yl)oxy]-2-(4-amino-5-cyclopropyl-7H-pyrrolo[2,3-d]pyrimidin-7-yl)hexahydro-3aH-cyclopenta[b]furan-3,3a-diol]	0.5 nM	–
Cc1ncnc2c1ccn2[C@@H]1C[C@@H]2[C@@H](Cc3ccc4cc(F)c(N)nc4c3)CC[C@]2(O)[C@H]1O [Example 18, (1S,2R,3aR,4R,6aR)-4-((2-amino-3-fluoroquinolin-7-yl)methyl)-2-(4-methyl-7H-pyrrolo[2,3-d]pyrimidin-7-yl)hexahydropentalene-1,6a(1H)-diol]	0.4 nM	229 nM
Nc1nc2cc(C[C@@H]3CC[C@@]4(O)[C@@H]3O[C@@H](n3ccc5c(N)ncnc53)[C@@H]4O)cc(F)c2cc1F [Example 29, (2R,3R,3aS,6S,6aR)-6-[(2-amino-3,5-difluoroquinolin-7-yl)methyl]-2-(4-amino-7H-pyrrolo[2,3-d]pyrimidin-7-yl)hexahydro-3aH-cyclopenta[b]furan-3,3a-diol]	0.3 nM	–
Cc1nc(N)c2ccn([C@@H]3O[C@@H]4[C@H](Cc5ccc6cc(Br)c(N)nc6c5)CC[C@]4(O)[C@H]3O)c2n1 [Example 61, (2R,3R,3aS,6S,6aR)-2-(4-amino-2-methyl-7H-pyrrolo[2,3-d]pyrimidin-7-yl)-6-((2-amino-3-bromoquinolin-7-yl)methyl)hexahydro-3aH-cyclopenta[b]furan-3,3a-diol]	0.5 nM	–
Cc1cc2ccc(C[C@@H]3CC[C@@]4(O)[C@@H]3O[C@@H](n3ccc5c(N)ncnc53)[C@@H]4O)cc2nc1N [Example 125, (2R,3R,3aS,6S,6aR)-6-((2-amino-3-methylquinolin-7-yl)methyl)-2-(4-amino-7H-pyrrolo[2,3-d]pyrimidin-7-yl)hexahydro-3aH-cyclopenta[b]furan-3,3a-diol]	0.8 nM	–
Nc1nc2cc(C[C@@H]3CC[C@@]4(O)[C@@H]3O[C@@H](n3ccc5c(N)nc(F)nc53)[C@@H]4O)ccc2cc1F [Example 45, (2R,3R,3aS,6S,6aR)-2-(4-amino-2-fluoro-7H-pyrrolo[2,3-d]pyrimidin-7-yl)-6-((2-amino-3-fluoroquinolin-7-yl)methyl)hexahydro-3aH-cyclopenta[b]furan-3,3a-diol]	0.3 nM	–
Cc1nc(N)c2ccn([C@@H]3C[C@@H]4[C@H](Cc5ccc6cc(Br)c(N)nc6c5)CC[C@]4(O)[C@H]3O)c2n1 [Example 37, (1S,2R,3aR,4S,6aR)-2-(4-amino-2-methyl-7H-pyrrolo[2,3-d]pyrimidin-7-yl)-4-((2-amino-3-bromoquinolin-7-yl)methyl)hexahydropentalene-1,6a(1H)-diol]	0.3 nM	–
Nc1nc2cc(C[C@@H]3CC[C@@]4(O)[C@@H]3C[C@@H](n3cc(F)c5c(N)ncnc53)[C@@H]4O)ccc2cc1F [Example 33, (1S,2R,3aR,4S,6aR)-4-((2-amino-3-fluoroquinolin-7-yl)methyl)-2-(4-amino-5-fluoro-7H-pyrrolo[2,3-d]pyrimidin-7-yl)hexahydropentalene-1,6a(1H)-diol]	0.6 nM	–
